From US12479895B2, “C-terminal CDNF and MANF fragments, pharmaceutical compositions comprising same and uses thereof” (MyNeuroCure Oy, priority 2018, dated 2025)

Legend:
[1] = test system: dopamine neurons; test: Survival of TH-positive dopamine neurons in dissociated midbrain floor cultures; assay type: cell-based, mouse; conditions: for survived neurons as % compared to neurons grown in the presence of GDNF: Table 3A (FIG. 15), 5 days; for Fold change of survived neurons compared to neurons grown without growth factors: data of Table 3 divided by values of no factor
Protocol: To study the dopamine neurons (Yu et al., 2008; Yu and Arumae, 2008), the midbrain floors were dissected from the ventral mesencephali of 13.5-d-old NMRI strain mouse embryos. Tissues were incubated with 0.5% trypsin (ICN Biomedical), then mechanically dissociated using a large fire-polished Pasteur pipette. The neurons were grown on the poly-L-ornithine-coated (Sigma) 96-well culture plates in DMEM/F12 medium (Invitrogen) containing N2 supplement (Invitrogen) in the presence or absence of GDNF (100 ng/ml) or with CDNF, MANF, C-CDNF and C-MANF polypeptides at different concentrations for five days. Same amount of the neurons were plated to each well at the beginning of the experiments. The cultures without added neurotrophic factors served as the negative control. As the midbrain cultures contain several neuronal types, the cultures were fixed and immunostained with the antibodies to tyrosine hydroxylase (TH) (Millipore), a specific marker for the dopaminergic neurons. Images of each well were scanned by CellInsight™ and immunopositive neurons were counted by CellProfiler and CellProfiler analyst software. Data are expressed as a percentage of GDNF-maintained TH-positive neurons. All experiments were repeated at least three times on the independent cultures. The results were expressed as the mean the SEM and were tested for the significance by either one-way ANOVA and Tukey's post hoc test or by two-tailed Student's t-test. The null hypothesis was rejected at P≤0.05.

[2] = test system: ER stressed SCG neurons; test: Survival of tunicamycin-treated (ER stressed) SCG sympathetic neurons after microinjection; assay type: cell-based, mice; conditions: for survived neurons as % compared to neurons grown in the presence of NGF: Table 1A (FIG. 14), microinjected into cytoplasm, tunicamycin 2 μM, CDNF (400); for Fold change of survived neurons compared to neurons injected with PBS: data of Table 1 divided by values of PBS
Protocol: Non-neuronal cells were removed by extensive preplating. Almost pure neurons were cultured in polyornithine/laminin (Sigma)-coated 35-mm plastic dishes in the small-size standard microislands in the Neurobasal medium and B27 supplement (Invitrogen/Gibco) in the presence of 30 ng/ml mouse nerve growth factor (NGF) (Promega) for 5-6 days. NGF was deprived by extensive washing and addition of the function-blocking anti-NGF antibodies (Roche). The neurons were pressure-microinjected with special neuronal microinjection equipment (Hellman et al., 2011; Hamner et al., 2001; Lindholm et al., 2002; Sun et al., 2001; Yu et al., 2003)(Sun et al., 2001; Sun et al., 2003). For the survival assay, all neurons on the microislands were counted in the beginning (initial number) and the end (three days) of the experiment and expressed as % of initial.
Microinjection of the sympathetic neurons was performed as described earlier (Yu, L. Y., Jokitalo, E., Sun, Y. F., Mehlen, P., Lindholm, D., Saarma, M., and Arumae, U. (2003) J Cell Biol. 163, 987-997). Plasmids for CDNF have been described earlier. Briefly, newborn mouse SCG neurons were grown with NGF (Promega) for 5-6 days then the nuclei were microinjected with the expression plasmids for full-length (FL)-CDNF and C-CDNF together with a reporter plasmid for enhanced green fluorescent protein (EGFP), using vector concentration of 10 ng/ul in each experiment. […] For protein microinjection, recombinant full length (FL)-CDNF, C-CDNF proteins in PBS at 200 ng/ul were microinjected directly into the cytoplasm together with fluorescent reporter Dextran Texas Red (MW 70000 Da) (Invitrogen, Molecular Probes) that facilitates identification of the successfully injected neurons. Next day tunicamycin (2 μM) was added, and after 3 days the living fluorescent neurons were counted. Living fluorescent (EGFP-expressing or Dextran Texas Red-containing) neurons were “blindly” counted three days later and expressed as percent of initial living fluorescent neurons counted 2-3 hours after microinjection. The experiments with plasmids were repeated on independent cultures 5 times for plasmid experiment, whereas four independent protein injection experiments were performed. On average, 50-80 neurons were successfully injected per experimental group. The results were expressed as the mean±the SEM. Data of each experimental group was compared with control plasmid PCR3.1 (vector) or PBS (in the protein injection experiments) by one-way ANOVA and post hoc Dunnett's t test. The null hypothesis was rejected at p<0.05.

For “TLDLASVDLRKMRVAELKQILHSWGEECRACAEKTDYVNLIQELAPKYA (listed as Homo sapiens) [pep4]”, the “survived neurons as % compared to neurons grown in the presence of GDNF” value (“survived neurons as % … of GDNF” for short) ([1]; AVG, 1 ng/ml) was 69.14 % GDNF, the “survived neurons as % … of GDNF” value ([1]; AVG, 10 ng/ml) was 70.54 % GDNF and the “survived neurons as % … of GDNF” value ([1]; AVG, 100 ng/ml) was 70.14 % GDNF. For the same sequence, the “survived neurons as % … of GDNF” value ([1]; AVG, 1000 ng/ml) was 76.27 % GDNF, the “survived neurons as % … of GDNF” value ([1]; exp1, 1 ng/ml) was 61.71 % GDNF and the “survived neurons as % … of GDNF” value ([1]; exp1, 10 ng/ml) was 64.44 % GDNF. The “survived neurons as % … of GDNF” value ([1]; exp1, 100 ng/ml) was 69.02 % GDNF, the “survived neurons as % … of GDNF” value ([1]; exp1, 1000 ng/ml) was 68.35 % GDNF and the “survived neurons as % … of GDNF” value ([1]; exp2, 1 ng/ml) was 79.99 % GDNF. The “survived neurons as % … of GDNF” value ([1]; exp2, 10 ng/ml) was 81.47 % GDNF, the “survived neurons as % … of GDNF” value ([1]; exp2, 100 ng/ml) was 73.24 % GDNF and the “survived neurons as % … of GDNF” value ([1]; exp2, 1000 ng/ml) was 83.39 % GDNF. The “survived neurons as % … of GDNF” value ([1]; exp3, 1 ng/ml) was 65.71 % GDNF, the “survived neurons as % … of GDNF” value ([1]; exp3, 10 ng/ml) was 65.71 % GDNF and the “survived neurons as % … of GDNF” value ([1]; exp3, 100 ng/ml) was 68.14 % GDNF. For the same sequence, the “survived neurons as % … of GDNF” value ([1]; exp3, 1000 ng/ml) was 77.07 % GDNF, the “Fold change of survived neurons compared to neurons grown without growth factors” value ([1]; Table 4, AVG, 1 ng/ml) was 1.12 fold and the “Fold change of survived neurons compared to neurons grown without growth factors” value ([1]; Table 4, AVG, 10 ng/ml) was 1.14 fold. The “Fold change of survived neurons compared to neurons grown without growth factors” value ([1]; Table 4, AVG, 100 ng/ml) was 1.14 fold, the “Fold change of survived neurons compared to neurons grown without growth factors” value ([1]; Table 4, AVG, 1000 ng/ml) was 1.24 fold and the “Fold change of survived neurons compared to neurons grown without growth factors” value ([1]; Table 4, exp1, 1 ng/ml) was 1.08 fold. The “Fold change of survived neurons compared to neurons grown without growth factors” value ([1]; Table 4, exp1, 10 ng/ml) was 1.13 fold, the “Fold change of survived neurons compared to neurons grown without growth factors” value ([1]; Table 4, exp1, 100 ng/ml) was 1.21 fold and the “Fold change of survived neurons compared to neurons grown without growth factors” value ([1]; Table 4, exp1, 1000 ng/ml) was 1.20 fold. For the same sequence, the “Fold change of survived neurons compared to neurons grown without growth factors” value ([1]; Table 4, exp2, 1 ng/ml) was 1.27 fold, the “Fold change of survived neurons compared to neurons grown without growth factors” value ([1]; Table 4, exp2, 10 ng/ml) was 1.29 fold and the “Fold change of survived neurons compared to neurons grown without growth factors” value ([1]; Table 4, exp2, 100 ng/ml) was 1.16 fold. For the same sequence, the “Fold change of survived neurons compared to neurons grown without growth factors” value ([1]; Table 4, exp2, 1000 ng/ml) was 1.32 fold, the “Fold change of survived neurons compared to neurons grown without growth factors” value ([1]; Table 4, exp3, 1 ng/ml) was 1.01 fold and the “Fold change of survived neurons compared to neurons grown without growth factors” value ([1]; Table 4, exp3, 10 ng/ml) was 1.01 fold. The “Fold change of survived neurons compared to neurons grown without growth factors” value ([1]; Table 4, exp3, 100 ng/ml) was 1.05 fold, the “Fold change of survived neurons compared to neurons grown without growth factors” value ([1]; Table 4, exp3, 1000 ng/ml) was 1.19 fold and the “survived neurons as % compared to neurons grown in the presence of NGF” value (shortened to “survived neurons as % … of NGF”) ([2]; AVG of exp1-2) was 79.15 % NGF. For the same sequence, the “survived neurons as % … of NGF” value ([2]; exp1, counted after 3 days) was 81.25 % NGF, the “survived neurons as % … of NGF” value ([2]; exp2, counted after 3 days) was 77.05 % NGF and the “Fold change of survived neurons compared to neurons injected with PBS” value (“Fold change of survived neurons … with PBS” for short) ([2]; Table 2, AVG) was 2.16 Fold to PBS. For the same sequence, the “Fold change of survived neurons … with PBS” value ([2]; Table 2, exp1) was 2.37 Fold to PBS and the “Fold change of survived neurons … with PBS” value ([2]; Table 2, exp2) was 1.94 Fold to PBS.
In the case of “TLDLASVDLRKMRVAELKQILHSWGEECRACAEKTDYVNLIQELAPKYAATHPKTEL (listed as Homo sapiens) [pep2]”, the “survived neurons as % … of GDNF” value ([1]; AVG, 1 ng/ml) is reported as 67.69 % GDNF, the “survived neurons as % … of GDNF” value ([1]; AVG, 10 ng/ml) is reported as 69.82 % GDNF and the “survived neurons as % … of GDNF” value ([1]; AVG, 100 ng/ml) is reported as 68.98 % GDNF. The “survived neurons as % … of GDNF” value ([1]; AVG, 1000 ng/ml) was 66.30 % GDNF, the “survived neurons as % … of GDNF” value ([1]; exp1, 1 ng/ml) was 81.18 % GDNF and the “survived neurons as % … of GDNF” value ([1]; exp1, 10 ng/ml) was 74.74 % GDNF. For the same sequence, the “survived neurons as % … of GDNF” value ([1]; exp1, 100 ng/ml) was 81.00 % GDNF, the “survived neurons as % … of GDNF” value ([1]; exp1, 1000 ng/ml) was 83.01 % GDNF and the “survived neurons as % … of GDNF” value ([1]; exp2, 1 ng/ml) was 52.61 % GDNF. The “survived neurons as % … of GDNF” value ([1]; exp2, 10 ng/ml) was 58.93 % GDNF, the “survived neurons as % … of GDNF” value ([1]; exp2, 100 ng/ml) was 47.98 % GDNF and the “survived neurons as % … of GDNF” value ([1]; exp2, 1000 ng/ml) was 52.95 % GDNF. For the same sequence, the “survived neurons as % … of GDNF” value ([1]; exp3, 1 ng/ml) was 69.28 % GDNF, the “survived neurons as % … of GDNF” value ([1]; exp3, 10 ng/ml) was 75.80 % GDNF and the “survived neurons as % … of GDNF” value ([1]; exp3, 100 ng/ml) was 77.95 % GDNF. The “survived neurons as % … of GDNF” value ([1]; exp3, 1000 ng/ml) was 62.94 % GDNF, the “Fold change of survived neurons compared to neurons grown without growth factors” value ([1]; Table 4, AVG, 1 ng/ml) was 1.11 fold and the “Fold change of survived neurons compared to neurons grown without growth factors” value ([1]; Table 4, AVG, 10 ng/ml) was 1.14 fold. For the same sequence, the “Fold change of survived neurons compared to neurons grown without growth factors” value ([1]; Table 4, AVG, 100 ng/ml) was 1.13 fold, the “Fold change of survived neurons compared to neurons grown without growth factors” value ([1]; Table 4, AVG, 1000 ng/ml) was 1.09 fold and the “Fold change of survived neurons compared to neurons grown without growth factors” value ([1]; Table 4, exp1, 1 ng/ml) was 1.42 fold. For the same sequence, the “Fold change of survived neurons compared to neurons grown without growth factors” value ([1]; Table 4, exp1, 10 ng/ml) was 1.31 fold, the “Fold change of survived neurons compared to neurons grown without growth factors” value ([1]; Table 4, exp1, 100 ng/ml) was 1.42 fold and the “Fold change of survived neurons compared to neurons grown without growth factors” value ([1]; Table 4, exp1, 1000 ng/ml) was 1.45 fold. The “Fold change of survived neurons compared to neurons grown without growth factors” value ([1]; Table 4, exp2, 1 ng/ml) was 0.83 fold, the “Fold change of survived neurons compared to neurons grown without growth factors” value ([1]; Table 4, exp2, 10 ng/ml) was 0.93 fold and the “Fold change of survived neurons compared to neurons grown without growth factors” value ([1]; Table 4, exp2, 100 ng/ml) was 0.76 fold. For the same sequence, the “Fold change of survived neurons compared to neurons grown without growth factors” value ([1]; Table 4, exp2, 1000 ng/ml) was 0.84 fold, the “Fold change of survived neurons compared to neurons grown without growth factors” value ([1]; Table 4, exp3, 1 ng/ml) was 1.07 fold and the “Fold change of survived neurons compared to neurons grown without growth factors” value ([1]; Table 4, exp3, 10 ng/ml) was 1.17 fold. The “Fold change of survived neurons compared to neurons grown without growth factors” value ([1]; Table 4, exp3, 100 ng/ml) was 1.20 fold, the “Fold change of survived neurons compared to neurons grown without growth factors” value ([1]; Table 4, exp3, 1000 ng/ml) was 0.97 fold and the “survived neurons as % … of NGF” value ([2]; AVG of exp1-2) was 77.52 % NGF. For the same sequence, the “survived neurons as % … of NGF” value ([2]; exp1, counted after 3 days) was 79.71 % NGF, the “survived neurons as % … of NGF” value ([2]; exp2, counted after 3 days) was 75.32 % NGF and the “Fold change of survived neurons … with PBS” value ([2]; Table 2, AVG) was 2.11 Fold to PBS. The “Fold change of survived neurons … with PBS” value ([2]; Table 2, exp1) was 2.32 Fold to PBS and the “Fold change of survived neurons … with PBS” value ([2]; Table 2, exp2) was 1.90 Fold to PBS.
